In patent US6841563B1, “Aryloxy propanolamines for improving livestock production” (Eli Lilly and Company, priority 1999, dated 2005):
Marks after values point to notes of the source that are not given here.

How the values were obtained:
[1] = Intravenous administration to cattle: serum non-esterified fatty acid (NEFA) and serum urea nitrogen (SUN) levels; format: in vivo; details: for ΔNEFA 24 Hours / change in vivo at 0.04 mg/kg: 40 μg per kilogram i.v. twice; for ΔNEFA 24 Hours: T+24 h minus T=0; for ΔNEFA 24 Hours / ΔNEFA 15 Min. / change in vivo at 0.04 mg/kg: mean of five animals; for ΔNEFA 15 Min.: 40 μg per kilogram i.v., T+15 min minus T=0; for change in vivo at 0.04 mg/kg: Bos taurus, iv, 24 hours post treatment vs baseline T=0, read-out: Δ% SUN 24 Hours; for lipolytic effects (non-esterified fatty acid levels): fifteen minutes and twenty-four hours after administration; for anabolic effects (change in serum urea nitrogen levels): twenty-four hours after administration, compared with the corresponding carboxamide regioisomers
Description: Intravenous administration of the compounds of the present invention to cattle increases serum non-esterified fatty acids and decreases serum urea. In this Example, angus/angus cross calves, both heifers and steers, weighing approximately 282 pounds (128 kg) initially to 788 pounds (357.8 kg) over the course of these studies, were placed in pens at 5 calves per pen. The cattle were acclimated to the pens for at least 1 week prior to initiating the study.
Calves were fed ad libitum twice daily, (approximately 6-15 pounds (2.7-6.8 kg)/day). During the treatment day, in the A.M. period, the feeding times were staggered to ensure that all animals were fed approximately one hour before the treatments were administered. During the P.M. treatment period, the cattle were fed immediately after receiving the P.M. injection.
After taking a pretreatment (T=O) blood sample from each animal, a 40 μg per kilogram dose of a test compound was administered intravenously in the jugular vein at 6:30 A.M. and 2:30 P.M. Each test compound was administered at a concentration of 1.00-1.25 mg/ml in a treatment vehicle that was a 50/50 mixture of polyethylene glycol 200/water.
A blood sample was taken at fifteen minutes post-treatment (T+15 min). The calves were returned to their respective pens until their next treatment, approximately eight hours later. The next morning at 6:30 A.M. a blood sample was collected from all calves at 24 hours post-treatment (T+24 h). All blood samples were analyzed for the non-esterified fatty acid level (NEFA) and serum urea nitrogen level (SUN). The post-treatment NEFA and SUN levels in each individual animal were compared with the levels found before treatment.

[2] = Weight gain, feed efficiency and carcass characteristics, last 14 days of growing period in broiler chickens; format: in vivo
Description: Approximately 1500 Peterson-Hubbard, day-old, male chicks were used in a randomized, complete-block design with 4 treatments (Control, Clenbuterol at 1 PPM, and Compound 6 at 3 and 15 PPM (mg/kg feed)). The testing facility contained 36 pens, divided equally into 6 blocks. Treatments were randomly allotted to pens within each block. Each treatment consisted of 6 pens with 10 birds per pen.
Day-of-age birds were obtained from Pine Manor Hatchery in Goshen, Ind. Approximately 40 birds per pen were set at random upon receipt. On day 30 of the growout period, all birds were weighed and the 15 birds closest to the block mean were selected. These birds were allowed to acclimate until day 35 of age. On that day, all remaining birds were weighed again, and the 10 birds/pen closest to the block mean were chosen for the treatment phase. Birds were provided ad libitum access to feed and water throughout the trial. All birds were fed a 23% crude protein corn-soy ration from day 1 until day 18 of age. The feed was changed to a 20% crude protein corn-soy ration from day 18 to day 49. The treatment feed was mixed using the same 20% crude protein basal ration. Treatments were administered in the feed from day 35 through day 49. Feed consumption was calculated over the entire 14-day treatment period. Birds were weighed at trial completion (day 49), and transported to Purdue University, West Lafayette, Ind. 47907, U.S.A. meat laboratory for slaughter and carcass measurements on day 50. Weights of the hot carcass, fat pad, and viscera were taken on all animals.

| SMILES | ΔNEFA 24 Hours [1] [µmol/L] | ΔNEFA 15 Min. [1] [µmol/L] | change in vivo at 0.04 mg/kg [1] [%] | further results |
| --- | --- | --- | --- | --- |
| CC(C)(Cc1ccc(Oc2ncccc2C(N)=O)cc1)NC[C@H](O)COc1cccc2[nH]c(=O)[nH]c12 [Compound 8] | 35.6 | 321.4 | -14.2 | lipolytic effects (non-esterified fatty acid levels) [1]: modest lipolytic effects; anabolic effects (change in serum urea nitrogen levels) [1]: significantly greater |
| CC(C)(Cc1ccc(Oc2cccc(Cl)c2C(N)=O)cc1)NC[C@H](O)COc1cccc2[nH]ccc12 [Compound 10] | -72.7 | 52.7 | -20.7 |  |
| CC(C)(Cc1ccc(Oc2ncccc2C(N)=O)cc1)NC[C@H](O)COc1cccc2[nH]ncc12 [Compound 2] | 742.4 | 141.2 | -39.3 | lipolytic effects (non-esterified fatty acid levels) [1]: modest lipolytic effects; anabolic effects (change in serum urea nitrogen levels) [1]: significantly greater |
| CC(C)(Cc1ccc(Oc2ccc(C(N)=O)cn2)cc1)NC[C@H](O)COc1cccc2[nH]ccc12 [Compound 5] | -5.6 | 170.8 | -28.6 |  |
| CC(C)(Cc1ccc(Oc2cccc(Cl)c2C(N)=O)cc1)NC[C@H](O)COc1cccc2[nH]c(C#N)cc12 [Compound 13] | 32.1 | 118.1 | -36.7 |  |
| CC(C)(C)NCC(O)c1cc(Cl)c(N)c(Cl)c1 (stereo not drawn) [Clenbuterol, reference compound] |  |  |  | Dressing Percentage ([2]; 1 PPM in feed, day 35-49): 72.77**; Fat Pad Weight ([2]; 1 PPM in feed, day 35-49): 26.86 g; Final Weight ([2]; 1 PPM in feed, day 35-49): 3.02 kg; Hot Carcass Weights ([2]; 1 PPM in feed, day 35-49): 2191.64** g; Pen Feed Intake ([2]; 1 PPM in feed, day 35-49): 25.20 kg; Total 14 day Weight Gain ([2]; 1 PPM in feed, day 35-49): 1.29 kg; Viscera Weight ([2]; 1 PPM in feed, day 35-49): 285.45 g; Feed Efficiency F/G ([2]; 1 PPM in feed, day 35-49, pen feed intake/total pen weight): 1.99; increase in weight gain over control ([2]; 1 PPM, 14-day treatment period, P=0.1430): 2.38%; improvement of feed efficiency versus control ([2]; 1 PPM, 14-day treatment period, P=0.7320): 0.50%; increase in hot carcass weights compared to control ([2]; 1 PPM, P=0.0027): 3.25%; decrease in viscera weights with respect to control ([2]; 1 PPM, P=0.7215): 0.66% |
| CC(C)(Cc1ccc(Oc2ccc(C(N)=O)cn2)cc1)NC[C@H](O)COc1cccc2[nH]c(=O)[nH]c12 [Compound 7] | -4.2 | 134.1 | -9.7 |  |
| CC(C)(Cc1ccc(Oc2ccc(C(N)=O)cn2)cc1)NC[C@H](O)COc1cccc2[nH]c(=S)[nH]c12 [Compound 3] | 200.2 | 379.4 | -38.2 |  |
| CC(C)(Cc1ccc(Oc2ccccc2C(N)=O)cc1)NC[C@H](O)COc1cccc2[nH]ccc12 [Compound 9] | -15.4 | 99 | -37 |  |
| CC(C)(Cc1ccc(Oc2ncccc2C(N)=O)cc1)NC[C@H](O)COc1cccc2[nH]c(=S)[nH]c12 [Compound 4] | 265.3 | 283.1 | -57 | lipolytic effects (non-esterified fatty acid levels) [1]: modest lipolytic effects; anabolic effects (change in serum urea nitrogen levels) [1]: significantly greater |
| CC(C)(Cc1ccc(Oc2ccc(Cl)cc2C(N)=O)cc1)NC[C@H](O)COc1cccc2[nH]ccc12 [Compound 11] | -14.1 | 94 | -39.4 |  |
| CC(C)(Cc1ccc(Oc2ccc(C(N)=O)cn2)cc1)NC[C@H](O)COc1cccc2[nH]ncc12 [Compound 1] | 820.9 | 554.4 | -28.7 |  |
| Cc1c[nH]c2cccc(OC[C@@H](O)CNC(C)(C)Cc3ccc(Oc4ncccc4C(N)=O)cc3)c12 [Compound 12] | -63.7 | 332.6 | -30.1 |  |
